Where “and” joins values, the source holds several entries; their conditions need not be identical. Equal entries are not always repeated.
Legend:
[1] = test system: phospho-Akt, phospho-ERK, Rb, PRAS40, phospho-histone H3, cyclin B1, PARP, Bcl-XL, caspases 3 and 7; assay: biochemical analyses of biomarkers; type: cell-based
[2] = test system: MDA-MB-361.1 mammary tumor; assay: MDA-MB-361.1 mammary tumor xenograft in CRL nu/nu mice; type: in vivo
Procedure: (§1) The efficacy of the combinations of the invention may be measured in vivo by implanting allografts or xenografts of cancer cells in rodents and treating the tumors with the combinations.
(§2) Tumor incidence (TI) was determined based on the number of measurable tumors remaining in each group at the end of the study. A partial response (PR) was defined as more than 50% but less than 100% reduction in tumor volume, compared with the starting tumor volume, observed for three consecutive measurements. A complete response (CR) was defined as a 100% reduction in tumor volume, compared with the initial tumor volume, observed for three consecutive measurements. Data were analyzed and p-values were determined using the Dunnett's t-test with JMP statistical software, version 5.1.2 (SAS Institute; Cary, N.C.). Individual tumor volumes at end of study and mean tumor volume±SEM values were calculated using JMP statistical software, version 5.1.2. Body weight data were graphed based on the mean percentage of change from initial body weights±SEM.

[3] = phase I study of GDC-0941 as a single agent; type: in vivo, human; details: 60 mg qd
[4] = test system: MMTV-HER2 Fo5 transgenic mammary tumor; assay: MMTV-HER2 Fo5 transgenic mammary tumor in CRL nu/nu mice; type: in vivo; details: FIG. 34; T-DM1 10 mg/kg iv q3wk; 5-FU 100 mg/kg po qwk×2; combination T-DM1 5 mg/kg + 5-FU 100 mg/kg; 42 day time point
Procedure: B20-4.1 was dosed on days 0, 3, 7, 10, 14, 17, 21 and 24 (2×/wk×4 for 8 total).
[…] Gemcitabine was dosed on days 0, 3, 6 and 9 (q3d×4).
The efficacy of the combinations of the invention may be measured in vivo by implanting allografts or xenografts of cancer cells in rodents and treating the tumors with the combinations. Variable results are to be expected depending on the cell line, the presence or absence of certain mutations in the tumor cells, the sequence of administration of trastuzumab-MCC-DM1 and chemotherapeutic agent, dosing regimen, and other factors. Subject mice were treated with drug(s) or control (Vehicle) and monitored over several weeks or more to measure the time to tumor doubling, log cell kill, and tumor inhibition (Example 3). FIGS. 10-17 and 34-37 show the efficacy of trastuzumab-MCC-DM1 in combinations with chemotherapeutic agents by xenograft tumor inhibition in mice.
(§3) Animals suitable for transgenic experiments can be obtained from standard commercial sources. Groups of female CB-17 SCID beige mice (Charles River Laboratory) were implanted with 3 million KPL-4 (Her2 overexpressing) breast cancer cells with matrigel in the mammary fat pad. Groups of female athymic nude mice (Charles River Laboratory or Harlan) were implanted with 2×2 mm3 fragments of MMTV-Her2 Fo5 transgenic breast tumors in the mammary fat pad. Mouse xenografts were dosed at day 0 with drug, drug combination, or vehicle according to the schedule specified for each tumor model. 5-FU, gemcitabine, carboplatin and B20-4.1 were administered intraperitoneal, pertuzumab was given either intravenously or intraperitoneal as indicated, trastuzumab-MCC-DM1 and docetaxel were administered intravenously, lapatinib, GDC-0941 and ABT-869 were given periorally by gavage. Tumor sizes were recorded twice weekly over the course of the study. Mouse body weights were also recorded twice weekly, and the mice were observed regularly. Tumor volume was measured in two dimensions (length and width) using Ultra Cal IV calipers (Model 54-10-111; Fred V. Fowler Co., Inc.; Newton, Mass.) and analyzed using Excel v.11.2 (Microsoft Corporation; Redmond, Wash.). Tumor inhibition graphs were plotted using KaleidaGraph, Version 3.6 (Synergy Software; Reading, Pa.). The tumor volume was calculated with formula: Tumor size (mm^3)=[…]
Tumor incidence (TI) was determined based on the number of measurable tumors remaining in each group at the end of the study. […] Data were analyzed and p-values were determined using the Dunnett's t-test with JMP statistical software, version 5.1.2 (SAS Institute; Cary, N.C.). Individual tumor volumes at end of study and mean tumor volume±SEM values were calculated using JMP statistical software, version 5.1.2. […]

[5] = test system: MMTV-Her2 Fo5 transgenic mammary tumor; assay: MMTV-Her2 Fo5 transgenic mammary tumor in Harlan athymic nude mice; type: in vivo; details: for single agent efficacy vs vehicle: FIG. 14, lapatinib 101 mg/kg po bid×21, pertuzumab 40 mg/kg iv qwk×4, B20-4.1 5 mg/kg ip 2×/wk×4, T-DM1 15 mg/kg iv q3wk; for efficacy vs vehicle by both time to tumor doubling and time to tumor endpoint: ABT-869 15 mg/kg, T-DM1 either 7.5 or 15 mg/kg
Procedure: as §1
The time to tumor doubling was measured by Kaplan-Meier statistical analysis as 2× Vo. Time to tumor doubling and survival analysis were quantified by Log-rank-p values. Time to progression is measured as the elapsed time for tumor volume to reach 1000 mm^3, or the survival time if 1000 mm^3 tumor volume is not reached.
as §3, with “5-FU, gemcitabine, carboplatin and B20-4.1 were administered intraperitoneal, pertuzumab was given either intravenously or intraperitoneal as indicated, trastuzumab-MCC-DM1 and docetaxel were administered intravenously, lapatinib, GDC-0941 and ABT-869 were given periorally by gavage.” left out, “Tumor volume was measured in two dimensions (length and width) using Ultra Cal IV calipers (Model 54-10-111; Fred V. Fowler Co., Inc.; Newton, Mass.) and analyzed using Excel v.11.2 (Microsoft Corporation; Redmond, Wash.).” left out
as §2

KPL-4 tumors = assay: KPL-4 tumor xenograft in SCID beige mice; type: in vivo; details: for complete responses (CR) / partial responses (PR): FIG. 10
Procedure: Pertuzumab was dosed on days 0, 7, and 14.
Pertuzumab was dosed on days 0, 7, 14, 21 (qwk×4. 5-FU was dosed on days 0, 7 and 14 (qwk×3). B20-4.1 was dosed on days 0, 3, 7, 10, 14, 17, 21 and 24 (2×/wk×8 total).
as §1
as §3, with “5-FU, gemcitabine, carboplatin and B20-4.1 were administered intraperitoneal, pertuzumab was given either intravenously or intraperitoneal as indicated, trastuzumab-MCC-DM1 and docetaxel were administered intravenously, lapatinib, GDC-0941 and ABT-869 were given periorally by gavage.” left out, “Tumor volume was measured in two dimensions (length and width) using Ultra Cal IV calipers (Model 54-10-111; Fred V. Fowler Co., Inc.; Newton, Mass.) and analyzed using Excel v.11.2 (Microsoft Corporation; Redmond, Wash.).” left out
as §2

[6] = FIG. 36 (2), GDC-0941 25 mg/kg po qd×21
[7] = FIG. 36 (3), GDC-0941 50 mg/kg po qd×21
[8] = FIG. 36 (4), GDC-0941 100 mg/kg po qd×21
[9] = pertuzumab 15 mg/kg, days 0, 7, 14
[10] = FIG. 37 (2), GNE-390 1.0 mg/kg po qd×21
[11] = FIG. 37 (3), GNE-390 2.5 mg/kg po qd×21
[12] = FIG. 16, T-DM1 15 mg/kg iv q3wk×2, 15 mg/kg
[13] = FIG. 17, T-DM1 15 mg/kg iv q3wk×2
[14] = FIG. 36 (5), T-DM1 3 mg/kg iv q3wk
[15] = FIG. 36 (6), T-DM1 10 mg/kg iv q3wk

In the case of `CS(=O)(=O)N1CCN(Cc2cc3nc(-c4cccc5[nH]ncc45)nc(N4CCOCC4)c3s2)CC1` [GDC-0941, 4-(2-(1H-indazol-4-yl)-6-((4-(methylsulfonyl)piperazin-1-yl)methyl)thieno[3,2-d]pyrimidin-4-yl)morpholine], the “phospho-Akt and phospho-ERK” value [1] is reported as “inhibition”, the “phosphorylation of Rb and PRAS40” value [1] is reported as “decreased phosphorylation” and the “complete response (CR)” value [2, 6] is reported as 0. For the same molecule, the “partial responses (PR)” value [2, 6] was 0, the “complete response (CR)” value [2, 7] was 0 and the “partial responses (PR)” value [2, 7] was 1. The “complete response (CR)” value [2, 8] was 0, the “partial responses (PR)” value [2, 8] was 0 and the “safety of the dose as a single agent” value [3] was “safe as a single agent without any dose limiting toxicities”.

In the case of `O=c1[nH]cc(F)c(=O)[nH]1` [5-FU, 5-fluoro-1H-pyrimidine-2,4-dione, reference compound], the “complete responses (CR)” value [4] is reported as 0 and the “partial responses (PR)” value [4] is reported as 0.

In the case of `CS(=O)(=O)CCNCc1ccc(-c2ccc3ncnc(Nc4ccc(OCc5cccc(F)c5)c(Cl)c4)c3c2)o1` [lapatinib, N-(3-chloro-4-(3-fluorobenzyloxy)phenyl)-6-(5-((2-(methylsulfonyl)ethylamino)methyl)furan-2-yl)quinazolin-4-amine, reference compound], the “single agent efficacy vs vehicle” value [5] is reported as “not different from vehicle”.

In the case of “pertuzumab: recombinant, humanized monoclonal antibody that inhibits dimerization of HER2 (CAS Reg. No. 380610-27-5) [reference compound]”, the “complete responses (CR)” value (KPL-4 tumors; [9]) is reported as 0, the “partial responses (PR)” value (KPL-4 tumors; [9]) is reported as 0 and the “single agent efficacy vs vehicle” value [5] is reported as “not different from vehicle”.

In the case of `Cc1c(CN2CCN(C(=O)[C@H](C)O)CC2)sc2c(N3CCOCC3)nc(-c3cnc(N)nc3)nc12` [GNE-390, (S)-1-(4-((2-(2-aminopyrimidin-5-yl)-7-methyl-4-morpholinothieno[3,2-d]pyrimidin-6-yl)methyl)piperazin-1-yl)-2-hydroxypropan-1-one], the “complete response (CR)” value [2, 10] is reported as 0, the “partial responses (PR)” value [2, 10] is reported as 0 and the “complete response (CR)” value [2, 11] is reported as 0. The “partial responses (PR)” value [2, 11] was 1.

For `Cc1ccc(F)c(NC(=O)Nc2ccc(-c3cccc4[nH]nc(N)c34)cc2)c1` [ABT-869, 1-(4-(3-amino-1H-indazol-4-yl)phenyl)-3-(2-fluoro-5-methylphenyl)urea, reference compound], the “efficacy vs vehicle by time to tumor doubling” value ([5]; FIG. 15, ABT-869 5 mg/kg po bid×21) was “not different than vehicle”, the “efficacy vs vehicle by time to endpoint” value ([5]; FIG. 15, ABT-869 5 mg/kg po bid×21, p<0.01) was “significantly better than vehicle” and the “efficacy vs vehicle by both time to tumor doubling and time to tumor endpoint” value ([5]; FIG. 15, p<0.01) was “significantly better than vehicle”.

With T-DM1 the “apoptosis (23 kDa PARP-cleavage fragment, Bcl-XL, activation of caspases 3 and 7)” value [1] was “resulted in apoptosis”, the “phospho-Akt and phospho-ERK” value [1] was “inhibition” and the “levels of the mitotic markers phospho-histone H3 and cyclin B1” value ([1]; after treatment) was “increased levels”. The “complete responses (CR)” value (KPL-4 tumors; T-DM1 0.3 mg/kg once on day 0) was 0, the “partial responses (PR)” value (KPL-4 tumors; T-DM1 0.3 mg/kg once on day 0) was 0 and the “complete responses (CR)” value (KPL-4 tumors; T-DM1 1 mg/kg once on day 0) was 0. For the same molecule, the “partial responses (PR)” value (KPL-4 tumors; T-DM1 1 mg/kg once on day 0) was 1, the “complete responses (CR)” value (KPL-4 tumors; T-DM1 3 mg/kg once on day 0) was 0 and the “partial responses (PR)” value (KPL-4 tumors; T-DM1 3 mg/kg once on day 0) was 7. The “remaining tumors less than 50 mm^3 with no evidence of viable tumor cells (histology, end of study)” value (KPL-4 tumors; FIG. 11, T-DM1 5 mg/kg single iv, 5-FU 100 mg/kg qwk×3, pertuzumab 40 mg/kg qwk×4) was 8 samples, the “complete responses (CR)” value [4] was 0 and the “partial responses (PR)” value [4] was 1. The “single agent efficacy vs vehicle” value [5] was “efficacious as a single agent”, the “efficacy vs vehicle by both time to tumor doubling and time to tumor endpoint” value ([5]; FIG. 15, p<0.01) was “significantly better than vehicle” and the objective responses ([5]; FIG. 16, T-DM1 7.5 mg/kg iv q3wk×2) was “no objective responses”. For the same molecule, the “complete response (CR)” value [5, 12] was 1 and 2, the “partial responses (PR)” value [5, 12] was 6 and 5 and the “complete responses (CR)” value [5, 13] was 3. For the same molecule, the “partial responses (PR)” value [5, 13] was 6, the “complete response (CR)” value [2, 14] was 1 and the “partial responses (PR)” value [2, 14] was 1. The “complete response (CR)” value [2, 15] was 1 and the “partial responses (PR)” value [2, 15] was 8.

For `CC(=O)O[C@@]12CO[C@@H]1C[C@H](O)[C@@]1(C)C(=O)[C@H](O)C3=C(C)[C@@H](OC(=O)[C@H](O)[C@@H](NC(=O)OC(C)(C)C)c4ccccc4)C[C@@](O)([C@@H](OC(=O)c4ccccc4)[C@H]21)C3(C)C` [docetaxel, (2R,3S)—N-carboxy-3-phenylisoserine, N-tert-butyl ester, 13-ester with 5,20-epoxy-1,2,4,7,10,13-hexahydroxytax-11-en-9-one 4-acetate 2-benzoate, trihydrate, reference compound], the “partial responses (PR)” value ([5]; FIG. 16, docetaxel 30 mg/kg iv qwk×3) was 2.

From patent US8663643B2, “Combinations of an anti-HER2 antibody-drug conjugate and chemotherapeutic agents, and methods of use” (Genentech, Inc., priority 2008, dated 2014)
